# Patent US9212206B1, “4-Fluoro-Thio-containing inhibitors of APP2, compositions thereof and method of use” (priority 2014, dated 2015)
# pIC50: −log10 of the molar value.
# How the values were obtained:
# [1] = biological target: Human recombinant angiotensin-converting enzyme (hrACE) (Homo sapiens (Human), UniProt P12821); test: Determination of human ACE activity (quenched fluorescent substrate ES005); assay type: biochemical; conditions: for pIC50: hrACE, substrate below Km, pH 7.4, 30° C., read-out: Binding affinity (IC50) ACE
# Method: Human recombinant angiotensin-converting enzyme (hrACE) was obtained from R&D Systems (Minneapolis, Minn.). Its enzyme activity was determined using the internally quenched fluorescent substrate ES005: (7-methoxycoumarin-4-yl)acetyl-Arg-Pro-Pro-Gly-Phe-Ser-Ala-Phe-(2,4-dinitrophenyl)-Lys (R&D Systems, Minneapolis, Minn.). The assay buffer was 0.1 M HEPES, pH 7.4, and the temperature was 30° C. The substrate concentration was below Km (≦40 μM). Enzyme rates were determined in an Fmax fluorescence plate reader (Molecular Devices, Sunnyvale, Calif.) using an excitation wavelength of 320 nm and an emission wavelength of 405 nm. The binding affinity of an inhibitor was estimated and expressed as IC50 values (the concentration that inhibits activity by 50%).
# Male CD-1(ICR) mice = test: Bilateral renal ischemia/reperfusion in mice; assay type: in vivo, mouse; conditions: for reduction of blood urea nitrogen (BUN) compared to saline: i.v. 5 min before reperfusion after 25 min ischemia, BUN after 2 days of reperfusion, apstatin 1.8 mg/kg, ST-115 10 μg/kg; for mice that died before the prespecified 2-day BUN measurement point: saline control 29% died early
# Method: Previous studies have shown that the prototype APP2 inhibitor apstatin can greatly reduce ischemia/reperfusion damage in the heart. […] In this study, blood flow to both kidneys of the mouse was blocked for 25 min., producing ischemia. Blood flow was then restored (reperfusion). In order to determine the effects of inhibiting APP2 in this model of kidney damage, apstatin, ST-115, or saline (control) were administered intravenously 5 min. before reperfusion. After two days of reperfusion, blood urea nitrogen (BUN, a marker of kidney dysfunction) was measured. In FIG. 1, data are presented as the mean±standard error of the mean. Each drug was separately compared to the control by the unpaired t-test with Welch's correction. ** Apstatin vs. Saline, p<0.01; *** ST-115 vs. Saline, p<0.001.
# Male CD-1(ICR) mice (36-47 g) from Harlan Laboratories (Indianapolis, Ind.) were used. Each mouse was anesthetized by the subcutaneous injection of 50 mg/kg sodium pentobarbital (Akorn Inc, Lake Forest, Ill.) and placed on a 37° C. warmer. For surgery, the abdomen was shaved and the mouse was moved to a warming plate with feedback temperature control (TCAT-2DF, Harvard Apparatus Holliston, Mass.). The body temperature of the mouse was maintained at 36.9±0.1° C. throughout the procedure. The skin of the abdomen was washed with alcohol, and a midline incision was made to expose the kidneys. After removing adipose tissue from the renal pedicles, a microaneurysm clamp was placed on each pedicle to block blood flow to/from both kidneys for 25 min. (referred to as the ischemia phase). At the 20 min. point, 0.15 ml of either saline or saline containing drug (apstatin or ST-115) was administered intravenously through the femoral vein. The doses were 1.8 mg/kg for apstatin and 10 μg/kg for ST-115. At 5 minutes after drug injection, the clamps were removed from the pedicles to restore blood flow to/from the kidneys (the reperfusion phase). After confirming reperfusion, a subcutaneous injection of saline was administered in the upper thigh for rehydration, and the incision was sutured closed. Regulated temperature control was maintained for at least the first 0.5 hours of reperfusion. The mouse was then placed on a 37° C. warmer to recover from the anesthetic and then moved to the home cage. After 2 days of reperfusion, the mouse was sacrificed by exsanguination. The blood was allowed to clot and then centrifuged to obtain serum. The serum was assayed for its concentration of urea (Blood Urea Nitrogen—BUN), a marker of kidney damage, using a kit from Stanbio (Boerne, Tex.). […] The BUN data points (20) were analyzed by comparing the values for each drug with those of the saline control using the unpaired t-test with Welch's correction (Graphpad Prism statistical package, La Jolla, Calif.).
# [2] = biological target: Human aminopeptidase P2 (APP2) (Homo sapiens (Human), UniProt O43895); test: Determination of human APP2 activity (quenched fluorescent substrate); assay type: biochemical; conditions: for pIC50: purified human kidney APP2, substrate 1 μM (=Km), pH 7.4, 30° C., read-out: Binding affinity (IC50) APP2; for IC50 ratio ACE/APP2: selectivity, ratio of IC50s for ACE/APP2
# Method: Human kidney tissue, which was obtained from the Cooperative Human Tissue Network, was the source of purified human APP2 as used herein. APP2 enzyme activity was measured during purification as described in Example 2B below. The membrane-bound APP2 was purified from human kidney tissue using the following steps: 1) kidney tissue was homogenized in 30 volumes of buffer containing Triton X-100 detergent and centrifuged; 2) the pellet was washed and suspended in buffer containing octyl-β-D-glucopyranoside detergent, and then centrifuged; 3) the supernatant was treated with 10 units of phosphatidylinositol-specific phospholipase C (Invitrogen, Eugene, Ga.) to remove the hydrophobic part of the glycosyl-phosphatidylinositol lipid membrane anchor from APP2, and then dialyzed; 4) the dialysate was passed through an octyl-Sepharose chromatography column; 5) the eluent was centrifuged and then concentrated by ultrafiltration in Amicon Ultra-15 Ultracel-10 k filters (Millipore Corp, Billerica, Mass.); 6) the retentate was dialyzed and applied to a HiTrap Q-Sepharose XL ion exchange chromatography column. Human APP2 enzyme activity was eluted with a linear KCl salt gradient.
# Human aminopeptidase P2 (APP2) enzyme activity was determined using the internally quenched fluorescent substrate: H-Lys(2-aminobenzoyl)-Pro-Pro-p-nitroanilide (Bachem, Torrance, Calif.) at 1 μM (=Km) for inhibitor studies and 5 μM for enzyme purification assays. The assay buffer was 0.1 M HEPES, pH 7.4, and the assay temperature was 30° C. Cleavage of the substrate by the enzyme produces an increase in fluorescence due to the release of H-Lys(2-aminobenzoyl). Enzyme rates were determined in an F. fluorescence plate reader (Molecular Devices, Sunnyvale, Calif.) using an excitation wavelength of 320 nm and an emission wavelength of 405 nm. The binding affinity of an inhibitor was estimated and expressed as IC50 values (the concentration that inhibits activity by 50%).
# isolated perfused heart = conditions: ischemia/reperfusion (Ersahin et al. 1999); cited from earlier work
# Chain of Human aminopeptidase P2 (APP2) (O43895 22-674): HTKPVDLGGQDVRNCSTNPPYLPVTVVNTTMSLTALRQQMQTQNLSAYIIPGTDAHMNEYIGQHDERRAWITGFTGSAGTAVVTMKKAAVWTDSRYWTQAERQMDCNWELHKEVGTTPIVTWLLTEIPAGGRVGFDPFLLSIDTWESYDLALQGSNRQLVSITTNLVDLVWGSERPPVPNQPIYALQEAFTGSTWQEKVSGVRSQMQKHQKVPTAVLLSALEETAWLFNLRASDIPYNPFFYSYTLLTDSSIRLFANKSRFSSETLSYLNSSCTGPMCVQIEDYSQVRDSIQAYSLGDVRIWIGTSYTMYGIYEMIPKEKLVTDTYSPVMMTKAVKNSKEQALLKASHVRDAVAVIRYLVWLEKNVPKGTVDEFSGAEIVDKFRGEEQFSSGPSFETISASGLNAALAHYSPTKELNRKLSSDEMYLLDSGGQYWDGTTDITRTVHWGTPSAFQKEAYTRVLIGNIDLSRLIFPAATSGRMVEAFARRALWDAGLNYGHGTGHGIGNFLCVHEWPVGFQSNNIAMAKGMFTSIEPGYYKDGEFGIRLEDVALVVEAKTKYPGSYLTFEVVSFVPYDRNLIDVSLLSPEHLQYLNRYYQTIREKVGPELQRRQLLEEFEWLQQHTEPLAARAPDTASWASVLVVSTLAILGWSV
# Chain of Human recombinant angiotensin-converting enzyme (hrACE) (P12821 30-1306): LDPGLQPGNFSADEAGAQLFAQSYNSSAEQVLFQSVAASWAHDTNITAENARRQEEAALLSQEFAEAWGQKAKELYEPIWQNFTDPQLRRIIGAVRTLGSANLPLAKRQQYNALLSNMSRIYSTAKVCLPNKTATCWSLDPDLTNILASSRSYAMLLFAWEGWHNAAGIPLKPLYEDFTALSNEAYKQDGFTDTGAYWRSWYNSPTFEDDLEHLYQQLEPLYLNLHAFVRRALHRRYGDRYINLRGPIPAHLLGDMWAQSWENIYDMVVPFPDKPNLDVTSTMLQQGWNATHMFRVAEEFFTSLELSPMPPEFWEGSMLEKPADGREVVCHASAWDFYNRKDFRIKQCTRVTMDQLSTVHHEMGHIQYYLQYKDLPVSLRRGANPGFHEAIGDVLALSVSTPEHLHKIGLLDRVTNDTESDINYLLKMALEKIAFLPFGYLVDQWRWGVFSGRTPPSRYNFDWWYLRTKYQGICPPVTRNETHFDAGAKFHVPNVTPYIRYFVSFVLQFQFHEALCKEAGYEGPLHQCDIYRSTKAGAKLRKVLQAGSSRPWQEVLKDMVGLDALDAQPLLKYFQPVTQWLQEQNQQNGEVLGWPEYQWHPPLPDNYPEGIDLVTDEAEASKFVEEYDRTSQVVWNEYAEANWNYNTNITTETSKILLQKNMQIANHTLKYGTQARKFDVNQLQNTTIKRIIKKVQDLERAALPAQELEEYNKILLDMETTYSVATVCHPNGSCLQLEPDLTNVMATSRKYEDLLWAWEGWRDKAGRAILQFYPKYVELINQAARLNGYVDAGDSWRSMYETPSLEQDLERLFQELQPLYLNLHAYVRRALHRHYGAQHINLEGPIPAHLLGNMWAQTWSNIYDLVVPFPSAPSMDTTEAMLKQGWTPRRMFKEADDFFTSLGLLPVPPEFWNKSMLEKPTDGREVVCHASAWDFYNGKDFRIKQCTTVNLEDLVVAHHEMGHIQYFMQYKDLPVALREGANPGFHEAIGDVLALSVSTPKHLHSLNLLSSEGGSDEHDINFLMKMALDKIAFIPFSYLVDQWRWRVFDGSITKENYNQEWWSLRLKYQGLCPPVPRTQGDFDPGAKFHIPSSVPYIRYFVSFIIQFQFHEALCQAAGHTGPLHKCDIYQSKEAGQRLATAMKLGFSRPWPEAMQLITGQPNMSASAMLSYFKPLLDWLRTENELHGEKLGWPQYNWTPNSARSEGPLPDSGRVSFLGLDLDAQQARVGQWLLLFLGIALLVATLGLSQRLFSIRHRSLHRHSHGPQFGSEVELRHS
SMILES,IC50 for human ACE [1],pIC50 [1],reduction of blood urea nitrogen (BUN) compared to saline (Male CD-1(ICR) mice) [%],mice that died before the prespecified 2-day BUN measurement point (Male CD-1(ICR) mice),IC50 for human APP2 [2] [nM/L],pIC50 [2],IC50 ratio ACE/APP2 [2],reduction of cardiac damage (isolated perfused heart) [%]
"CC(C)C[C@H](S)C(=O)N1C[C@@H](F)C[C@H]1C(=O)N1CCC[C@H]1C(=O)N1CC[C@@H](C(=O)O)C1 [Formula III, [(S)-2-mercapto-4-methylpentanoyl]-4(S)-fluoro-Pro-Pro-[(3R)-β-Pro]-OH]","68,000 nM/L",4.17,56,no apstatin or ST-115 treated mice died early,3.7,8.43,"18,000",–
CC(C)C[C@H](S)C(=O)N1CCC[C@H]1C(=O)N1CCC[C@H]1C(=O)N(C)[C@@H](C)C(=O)O [Formula VII],–,6.19,–,–,–,8.41,160,–
CC(C)C[C@H](S)C(=O)N1CCC[C@H]1C(=O)N1CCC[C@H]1C(=O)N1CCC[C@@H]1C(=O)O [Formula VI],–,4.92,–,–,–,8.01,"1,200",–
CC(C)C[C@H](S)C(=O)N1CCC[C@H]1C(=O)N1CCC[C@H]1C(=O)N1CC[C@H](C(=O)O)C1 [Formula V],–,4.31,–,–,–,7.59,"1,900",–
C[C@H](NC(=O)[C@@H]1CCCN1C(=O)[C@@H]1CCCN1C(=O)[C@@H](O)[C@H](N)Cc1ccccc1)C(N)=O [apstatin],–,–,49,no apstatin or ST-115 treated mice died early,–,–,–,74
